These results are taken from patent US20240285649A1, “PROGESTOGEN FORMULATIONS FOR USE IN MODULATING A CYTOKINE STORM MEDIATOR” (Shenzhen Evergreen Therapeutics Co., Ltd, priority 2020, published 2024).

In data set [1] the target is ABCB1 efflux transporters (Homo sapiens, UniProt P08183). The following applies: literature (Bloise et al. 2016); cited from earlier work.
The subject of data set [2] is smoke exposure-induced COPD rats. In words: Pharmacodynamic study of 17-HPC inhalation in smoke exposure-induced COPD rats (lung function, BALF differential count, HE staining, body weight). It counts as in vivo, Wistar rats. To be noted: for weight increase: at 24 weeks. How it is done: (§1) Seventy-two Wistar rats were randomly divided into the blank control group, model group, 17-HPC (0.5 mg/ml, 0.25 mg/ml and 0.1 mg/ml) groups, BUD (0.5 mg/ml and 0.1 mg/ml) groups, and combination treatment (0.5 mg/ml BUD+0.25 mg/ml 17-HPC and 0.1 mg/ml BUD+0.25 mg/ml 17-HPC) groups. Drug concentration is the nebulized solution concentration. Lung function (forced vital capacity) of rats was measured using the small animal spirometer, and differential count in the BALF was determined under the microscope. Serum and BALF cytokine (IL-6, IL-17, TNF-α and IL-β) levels were measured by ELISA. Inflammatory cell infiltration area and MLI in rat lung tissues were determined by HE staining.

The subject of data set [3] is IL-6, IL-17, TNF-α and IL-1β. In words: Serum and BALF cytokine levels by ELISA in COPD rats. To be noted: aside from the low dose (0.1 mg/ml) 17-HPC group. It counts as in vivo, Wistar rats. On the procedure:
as §1, with “To examine the in vitro and in vivo efficacy of 17-HPC inhalation in chronic obstructive pulmonary disease (COPD) rats, a rat model of COPD was established by exposing Wistar rats to CS for 1 hour every day for a total of 180 days. Seventy-two” for “Seventy-two”
Background: An ELISA detects its analyte on a solid surface through an enzyme-linked reagent.

Data set [4] can be described thus: PK of PR2005 formulations (oral gavage, capsule, IM) in female dogs, relative bioavailability vs MAKENA. The format is in vivo. The following applies: 750 mg compared to 250 mg. An excerpt: This study determined the pharmacokinetic parameters of the test drug PR2005 (also referred to herein as 17-HPC) in different formulations after oral gavage or capsule administrations in dogs. This study further determined the relative bioavailability of the test drug PR2005 in each formulation, compared to intramuscular injection solution (MAKENA®).
PK parameters were estimated, including maximum plasma drug concentration (Cmax), time to reach Cmax (Tmax), time delay in absorption process (Tlag), area under the plasma concentration-time curve from time 0 to the last quantifiable data point (AUClast), area under the plasma concentration-time curve from time zero to infinity (AUCinf), plasma half-life (t1/2) and apparent plasma clearance (CL/F), apparent volume of distribution (Vz/F). All these parameters were computed using standard non-compartmental methods of analysis. […] Plasma PR2005 PK data was analyzed in Phoenix WinNonLin 8.1 (Certara USA, Inc.).
Log-transformed values of AUCinf were analyzed using a linear mixed-effects model. […] After back transformation from the log scale, estimates of geometric LSM and 90% CI for the ratio of means were calculated. Relative bioavailability (Fr %) was calculated as the ratio of dose normalized geometric least square mean (LSM) for test formulation and IM solution: […]

The test system of data set [5] is Sprague-Dawley rats. In words: Seven-day inhalation toxicity study in rats (GLP). The format is in vivo. On the procedure: A 7-day inhalation toxicity study in rats was conducted under GLP conditions. In this study, aerosolized 17-HPC was administered to Sprague-Dawley rats (10/sex/group) at 8, 24, and 72 mg/kg/day for 7 consecutive days. A control group of rats was dosed with aerosolized vehicle. Animals were observed daily for clinical signs. Body weight and food consumption were recorded at pretest, and then on Days 1, 4, and 7. In order to evaluate reversibility of 17-HPC treatment, a satellite rat group (5/sex/group) was dosed by inhalation at 72 mg/kg/day for 7 days, and then was sacrificed on Day 14. Except for the rats in the satellite group, all animals were sacrificed on Day 8. Hematology and biochemistry examinations were performed at the end of the study. Organ weight, gross pathology, and histopathology evaluations were performed.

ABCB1 efflux transporters, sequence (P08183 whole entry): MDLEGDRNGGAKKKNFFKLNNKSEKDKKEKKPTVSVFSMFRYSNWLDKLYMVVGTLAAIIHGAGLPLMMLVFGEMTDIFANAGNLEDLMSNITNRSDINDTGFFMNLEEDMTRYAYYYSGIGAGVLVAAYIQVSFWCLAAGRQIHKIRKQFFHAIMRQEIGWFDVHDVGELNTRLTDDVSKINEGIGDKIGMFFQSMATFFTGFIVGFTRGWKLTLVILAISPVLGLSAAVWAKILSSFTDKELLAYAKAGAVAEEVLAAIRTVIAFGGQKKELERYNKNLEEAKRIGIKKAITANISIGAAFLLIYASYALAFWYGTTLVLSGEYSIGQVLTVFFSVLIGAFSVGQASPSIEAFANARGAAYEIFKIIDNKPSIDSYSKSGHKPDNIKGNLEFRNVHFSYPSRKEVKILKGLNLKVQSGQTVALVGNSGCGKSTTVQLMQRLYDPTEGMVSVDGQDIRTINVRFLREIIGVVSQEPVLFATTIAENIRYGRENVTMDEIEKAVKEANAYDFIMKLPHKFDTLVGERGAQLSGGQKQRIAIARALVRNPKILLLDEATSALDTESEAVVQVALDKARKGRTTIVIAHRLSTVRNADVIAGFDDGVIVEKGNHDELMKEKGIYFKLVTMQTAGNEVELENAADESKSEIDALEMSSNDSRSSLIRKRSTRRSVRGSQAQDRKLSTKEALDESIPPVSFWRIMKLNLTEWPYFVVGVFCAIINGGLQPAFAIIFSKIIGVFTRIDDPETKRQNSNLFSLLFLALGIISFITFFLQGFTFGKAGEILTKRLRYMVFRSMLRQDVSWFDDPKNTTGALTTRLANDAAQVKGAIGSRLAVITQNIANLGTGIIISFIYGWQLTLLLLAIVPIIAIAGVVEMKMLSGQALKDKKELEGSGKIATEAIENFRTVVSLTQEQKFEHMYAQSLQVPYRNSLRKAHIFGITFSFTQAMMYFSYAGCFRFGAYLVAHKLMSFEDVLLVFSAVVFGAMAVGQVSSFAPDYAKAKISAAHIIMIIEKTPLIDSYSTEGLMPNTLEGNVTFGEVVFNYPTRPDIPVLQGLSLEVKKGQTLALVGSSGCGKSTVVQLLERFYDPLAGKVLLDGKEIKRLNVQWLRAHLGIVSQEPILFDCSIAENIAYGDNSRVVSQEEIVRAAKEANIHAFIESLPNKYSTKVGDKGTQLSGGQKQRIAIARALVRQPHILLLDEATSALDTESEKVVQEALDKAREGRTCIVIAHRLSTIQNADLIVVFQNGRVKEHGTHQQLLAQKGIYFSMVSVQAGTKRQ

In the case of `CCCCCC(=O)O[C@]1(C(C)=O)CC[C@H]2[C@@H]3CCC4=CC(=O)CC[C@]4(C)[C@H]3CC[C@@]21C` [Solution 17-HPC, 17-[(1-Oxohexyl)oxyl]-pregn-4-ene-3,20-dione], in data set [1], the efflux transporter substrate result is given as “substrate of ABCB1 efflux transporters”. Further, the weight increase result in data set [2] (vs model group) was “no difference in weight increase between the 17-HPC groups and the model group”. The MLI result in data set [2] (lung tissue, HE staining) is “decreased in the other 17-HPC groups and BUD groups in a dose-dependent manner”. Besides, in data set [2] (nebulized inhalation), the “inflammatory cell infiltration in lung tissues (HE staining)” value is “attenuated in the 17-HPC groups” and the “percentage of neutrophils in rat BALF” value was “reduced the percentage of neutrophils in rat BALF”. In addition, in data set [2] (nebulized inhalation, vs model group, after 24 weeks of CS exposure), the FEV0.2/FVC % result is given as “improved FEV0.2/FVC % in a dose-dependent manner”. In data set [3], the “TNF-α, IL-1β, IL-6 and IL-17 levels in the BALF” value was “can downregulate TNF-α, IL-1β, IL-6 and IL-17 levels in the BALF”. Moreover, in data set [4], the “dose proportionality of Cmax and AUC” value is on record as “generally greater than dose proportional”. The “clinical signs and body weight change” value in data set [5] (8 mg/kg/day group, inhalation 7 days, preliminary) was “no clinical signs and body weight change were observed”. Also, the “Hematological and biochemical parameters” value in data set [5] (8 mg/kg/day vs vehicle, preliminary) is “comparable between the animals treated with vehicle and 17-HPC at 8 mg/kg/day”. Also, the “organ weights, necropsy and histopathology” value in data set [5] (8 mg/kg/day, preliminary) is “Significant changes in organ weights, necropsy and histopathology were not recorded”. Further, the “NOAEL relative to proposed initial clinical dose (300 μg) based on body surface areas” value in data set [5] (rat NOAEL 48 mg/m^2/day vs 222 μg/m^2/day) was “approximately 216 times”. Besides, in data set [5] (rats, inhalation, 7 consecutive days), the “no observed adverse effect level (NOAEL), body surface” value is recorded as 48 mg/m^2/day. For the same compound, in data set [5] (satellite group, 72 mg/kg/day for 7 days, sacrificed Day 14), the “pathological alterations after 7-day recovery period” value is on record as “no remarkable pathological alterations in any animals from the satellite group”.
As to `CCCC1O[C@@H]2C[C@H]3[C@@H]4CCC5=CC(=O)C=C[C@]5(C)[C@H]4[C@@H](O)C[C@]3(C)[C@]2(C(=O)CO)O1` (stereo partly drawn) [BUD, budesonide], the weight increase entry in data set [2] (vs model group) is listed as “inhibited weight increase”.
